Ten compounds from US20240116985A1, “STAPLED PEPTIDES AND METHODS THEREOF” (priority 2020, published 2024) can be followed below.

Converted amounts (≈) assume the structure as drawn. Where two headings read alike, the source gives them in different places.

A short description of one series: CHI Log D procedure. In kind it is physicochemical. To be noted: for chromatographic logD: pH 7.4, CHI Log D; for CHI Log D: pH 7.4.
Another series can be described thus: Solubility in PBS. In kind it is physicochemical. A digest of the protocol: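 PBS sample ultracentrifuged; supernatant run on HPLC vs. 50 μM peptide in DMSO standard. Solubility = (PBS peak area / DMSO peak area) × 50 uM.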
Series [1] concerns the target T1, full-length beta-Catenin (Uniprot ID P35222) (Homo sapiens, UniProt P35222).
T1 construct: 10 nM full-length beta-Catenin (Uniprot ID P35222)
T1 sequence (P35222 1-781): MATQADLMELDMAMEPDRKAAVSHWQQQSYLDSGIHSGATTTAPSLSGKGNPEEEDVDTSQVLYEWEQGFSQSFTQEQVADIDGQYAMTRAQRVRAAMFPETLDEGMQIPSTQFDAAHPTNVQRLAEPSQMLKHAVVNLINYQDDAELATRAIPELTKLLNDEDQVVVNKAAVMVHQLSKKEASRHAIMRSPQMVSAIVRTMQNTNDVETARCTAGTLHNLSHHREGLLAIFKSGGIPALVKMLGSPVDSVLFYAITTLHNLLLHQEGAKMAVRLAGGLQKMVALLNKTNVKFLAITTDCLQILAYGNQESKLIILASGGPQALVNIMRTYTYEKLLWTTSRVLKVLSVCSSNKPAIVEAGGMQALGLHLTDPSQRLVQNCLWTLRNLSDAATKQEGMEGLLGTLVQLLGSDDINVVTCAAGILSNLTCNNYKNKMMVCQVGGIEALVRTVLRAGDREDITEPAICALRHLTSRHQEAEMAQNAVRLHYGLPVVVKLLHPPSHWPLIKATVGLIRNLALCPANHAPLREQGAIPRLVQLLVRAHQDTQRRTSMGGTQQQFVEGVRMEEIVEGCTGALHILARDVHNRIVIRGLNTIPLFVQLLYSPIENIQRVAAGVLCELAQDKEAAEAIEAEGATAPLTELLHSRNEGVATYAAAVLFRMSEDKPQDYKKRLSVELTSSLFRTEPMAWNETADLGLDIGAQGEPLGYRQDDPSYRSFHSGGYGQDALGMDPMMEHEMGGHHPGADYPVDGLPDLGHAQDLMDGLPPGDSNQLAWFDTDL
In words: Fluorescence polarization IC50 (beta-catenin / 5FAM-TCF4 10-53 competition). In kind it is binding. In general terms: Fluorescence polarisation rises when a labelled molecule tumbles more slowly, as on binding a larger partner.

Where [2] appears, read: fluorescence polarization, read-out: beta-Catenin FP IC50.

Usually chromatographic logD stands for a lipophilicity value derived from retention on a column. Read a high chromatographic logD as a more lipophilic compound. One may read the Solubility as the concentration that dissolves in the medium under given conditions. Lower therefore signals little dissolved substance. In the series “CHI Log D procedure”, `CC[C@H](C)[C@@H]1NC(=O)[C@H](CC(=O)O)NC(=O)[C@]2(CC=CCCCC3(CCCC=CCCCCCC[C@@](C)(C(=O)N[C@@H](Cc4ccccc4)C(=O)N[C@@H](Cc4csc5ccccc45)C(=O)N[C@@H](CC(C)C)C(N)=O)NC(=O)[C@H](CCC(N)=O)NC(=O)[C@H](Cc4ccccc4)NC(=O)[C@H](C)NC(=O)[C@H](C)NC(=O)[C@H](CCC(=O)O)NC(=O)[C@H](CC(=O)O)NC3=O)NC1=O)CCCN2C(C)=O` (stereo partly drawn) [I-634, Ac-PL3-Asp-Ile-B5-Asp-Glu-Ala-Ala-Phe-Gln-S8-Phe-BztA-Leu-NH2] displayed a chromatographic logD of 2.76. The compound further displayed a Solubility in “Solubility in PBS” (Solubility (uM)) of 49 µM (≈ 91.5 µg/mL). In addition, the IC50 in series [1] (setting [2]) stood at 425 nM.

The compound `CC[C@H](C)[C@@H]1NC(=O)[C@H](CC(=O)O)NC(=O)[C@]2(CC=CCCCC3(CCCC=CCCCCCC[C@@](C)(C(=O)N[C@@H](Cc4ccccc4)C(=O)N[C@@H](Cc4csc5ccccc45)C(=O)N[C@@H](Cc4ccccc4)C(N)=O)NC(=O)[C@H](CCC(N)=O)NC(=O)[C@H](Cc4ccccc4)NC(=O)[C@H](C)NC(=O)[C@H](C)NC(=O)[C@H](CCC(=O)O)NC(=O)[C@H](CC(=O)O)NC3=O)NC1=O)CCCN2C(C)=O` (stereo partly drawn) [I-635, Ac-PL3-Asp-Ile-B5-Asp-Glu-Ala-Ala-Phe-Gln-S8-Phe-BztA-Phe-NH2] gave a chromatographic logD in “CHI Log D procedure” of 2.73. Also, the concentration in solution in the series “Solubility in PBS” (Solubility (uM)) (Solubility) was 43 µM (≈ 81.8 µg/mL). Also, the IC50 in series [1] (setting [2]) amounted to 171 nM.

`CC[C@H](C)[C@@H]1NC(=O)[C@H](CC(=O)O)NC(=O)[C@]2(CC=CCCCC3(CCCC=CCCCCCC[C@@](C)(C(=O)N[C@@H](Cc4ccccc4)C(=O)N[C@@H](Cc4csc5ccccc45)C(=O)N[C@@H](Cc4ccc(O)cc4)C(N)=O)NC(=O)[C@H](CCC(N)=O)NC(=O)[C@H](Cc4ccccc4)NC(=O)[C@H](C)NC(=O)[C@H](C)NC(=O)[C@H](CCC(=O)O)NC(=O)[C@H](CC(=O)O)NC3=O)NC1=O)CCCN2C(C)=O` (stereo partly drawn) [I-636, Ac-PL3-Asp-Ile-B5-Asp-Glu-Ala-Ala-Phe-Gln-S8-Phe-BztA-Tyr-NH2]: in “CHI Log D procedure”, the chromatographic logD was 2.57. Besides, the “Solubility” value in “Solubility in PBS” was 50 µM (≈ 95.9 µg/mL). Besides, the IC50 in series [1] (setting [2]) came to 198 nM.

Regarding `CC[C@H](C)[C@@H]1NC(=O)[C@H](CC(=O)O)NC(=O)[C@]2(CC=CCCCC3(CCCC=CCCCCCC[C@@](C)(C(=O)N[C@@H](Cc4ccccc4)C(=O)N[C@@H](Cc4csc5ccccc45)C(=O)N4CCC[C@H]4C(N)=O)NC(=O)[C@H](CCC(N)=O)NC(=O)[C@H](Cc4ccccc4)NC(=O)[C@H](C)NC(=O)[C@H](C)NC(=O)[C@H](CCC(=O)O)NC(=O)[C@H](CC(=O)O)NC3=O)NC1=O)CCCN2C(C)=O` (stereo partly drawn) [I-638, Ac-PL3-Asp-Ile-B5-Asp-Glu-Ala-Ala-Phe-Gln-S8-Phe-BztA-Pro-NH2], the “CHI Log D” value in “CHI Log D procedure” is 2.622. For the same compound, the “Solubility” value in the series “Solubility in PBS” is 48 µM (≈ 88.9 µg/mL). The IC50 in series [1] (setting [2]) and in series [1] (read-out: FP EC50) was 3880 nM each time.

In the case of `CC[C@H](C)[C@@H]1NC(=O)[C@H](CC(=O)O)NC(=O)[C@]2(CC=CCCCC3(CCCC=CCCCCCC[C@@](C)(C(=O)N[C@@H](Cc4ccccc4)C(=O)N[C@@H](Cc4csc5ccccc45)C(=O)N[C@@H](CO)C(N)=O)NC(=O)[C@H](CCC(N)=O)NC(=O)[C@H](Cc4ccccc4)NC(=O)[C@H](C)NC(=O)[C@H](C)NC(=O)[C@H](CCC(=O)O)NC(=O)[C@H](CC(=O)O)NC3=O)NC1=O)CCCN2C(C)=O` (stereo partly drawn) [I-639, Ac-PL3-Asp-Ile-B5-Asp-Glu-Ala-Ala-Phe-Gln-S8-Phe-BztA-Ser-NH2], in “CHI Log D procedure”, the “CHI Log D” value came to 2.49. Besides, the “Solubility” value in “Solubility in PBS” amounted to 44 µM (≈ 81.1 µg/mL). For the same compound, the IC50 in series [1] (setting [2]) and in series [1] (read-out: FP EC50) was 109 nM throughout.

For the compound `CC[C@H](C)[C@@H]1NC(=O)[C@H](CC(=O)O)NC(=O)[C@]2(CC=CCCCC3(CCCC=CCCCCCC[C@@](C)(C(=O)N[C@@H](Cc4ccccc4)C(=O)N[C@@H](Cc4csc5ccccc45)C(=O)N[C@@H](CO)C(N)=O)NC(=O)[C@H](CCC(N)=O)NC(=O)[C@H](Cc4ccccc4)NC(=O)[C@H](C)NC(=O)[C@H](C)NC(=O)[C@H](CCC(=O)O)NC(=O)[C@H](CC(=O)O)NC3=O)NC1=O)CCCN2C(C)=O` (stereo partly drawn) [I-640, Ac-PL3-Asp-Ile-B5-Asp-Glu-Ala-Ala-Phe-Gln-S8-Phe-BztA-Ser-NH2], the “CHI Log D” value in the series “CHI Log D procedure” stood at 2.516. Moreover, the “Solubility” value in “Solubility in PBS” amounted to 50 µM (≈ 92.1 µg/mL). The IC50 in series [1] (setting [2]) and in series [1] (read-out: FP EC50) was 87 nM in each case.

For `CC[C@H](C)[C@@H]1NC(=O)[C@H](CC(=O)O)NC(=O)[C@]2(CC=CCCCC3(CCCC=CCCCCCC[C@@](C)(C(=O)N[C@@H](Cc4ccccc4)C(=O)N[C@@H](Cc4csc5ccccc45)C(=O)N[C@H](C(N)=O)[C@@H](C)O)NC(=O)[C@H](CCC(N)=O)NC(=O)[C@H](Cc4ccccc4)NC(=O)[C@H](C)NC(=O)[C@H](C)NC(=O)[C@H](CCC(=O)O)NC(=O)[C@H](CC(=O)O)NC3=O)NC1=O)CCCN2C(C)=O` (stereo partly drawn) [I-641, Ac-PL3-Asp-Ile-B5-Asp-Glu-Ala-Ala-Phe-Gln-S8-Phe-BztA-Thr-NH2], the “CHI Log D” value in “CHI Log D procedure” came out at 2.497. The “Solubility” value in the series “Solubility in PBS” worked out at 43 µM (≈ 79.8 µg/mL). Further, the IC50 in series [1] (setting [2]) and in series [1] (read-out: FP EC50) was 122 nM throughout.

As to `CC[C@H](C)[C@@H]1NC(=O)[C@H](CC(=O)O)NC(=O)[C@]2(CC=CCCCC3(CCCC=CCCCCCC[C@@](C)(C(=O)N[C@@H](Cc4ccccc4)C(=O)N[C@@H](Cc4csc5ccccc45)C(=O)N[C@H](C(N)=O)[C@@H](C)O)NC(=O)[C@H](CCC(N)=O)NC(=O)[C@H](Cc4ccccc4)NC(=O)[C@H](C)NC(=O)[C@H](C)NC(=O)[C@H](CCC(=O)O)NC(=O)[C@H](CC(=O)O)NC3=O)NC1=O)CCCN2C(C)=O` (stereo partly drawn) [I-642, Ac-PL3-Asp-Ile-B5-Asp-Glu-Ala-Ala-Phe-Gln-S8-Phe-BztA-Thr-NH2], the “CHI Log D” value in the series “CHI Log D procedure” stood at 2.512. Further, the “Solubility” value in “Solubility in PBS” worked out at 48 µM (≈ 89.1 µg/mL). Also, the IC50 in series [1] (setting [2]) and in series [1] (read-out: FP EC50) was 118 nM in each case.

Turning to `CC[C@H](C)[C@@H]1NC(=O)[C@H](CC(=O)O)NC(=O)[C@]2(CC=CCCCC3(CCCC=CCCCCCC[C@@](C)(C(=O)N[C@@H](Cc4ccccc4)C(=O)N[C@@H](Cc4csc5ccccc45)C(=O)N[C@@H](Cc4c[nH]c5ccccc45)C(N)=O)NC(=O)[C@H](CCC(N)=O)NC(=O)[C@H](Cc4ccccc4)NC(=O)[C@H](C)NC(=O)[C@H](C)NC(=O)[C@H](CCC(=O)O)NC(=O)[C@H](CC(=O)O)NC3=O)NC1=O)CCCN2C(C)=O` (stereo partly drawn) [I-643, Ac-PL3-Asp-Ile-B5-Asp-Glu-Ala-Ala-Phe-Gln-S8-Phe-BztA-Trp-NH2], in “CHI Log D procedure”, the “CHI Log D” value is 2.833. In addition, the “Solubility” value in “Solubility in PBS” stood at 28 µM (≈ 54.4 µg/mL). Besides, the IC50 in series [1] (setting [2]) and in series [1] (read-out: FP EC50) was 958 nM each time.

Take `CC[C@H](C)[C@@H]1NC(=O)[C@H](CC(=O)O)NC(=O)[C@]2(CC=CCCCC3(CCCC=CCCCCCC[C@@](C)(C(=O)N[C@@H](Cc4ccccc4)C(=O)N[C@@H](Cc4csc5ccccc45)C(=O)N[C@@H](Cc4c[nH]c5ccccc45)C(N)=O)NC(=O)[C@H](CCC(N)=O)NC(=O)[C@H](Cc4ccccc4)NC(=O)[C@H](C)NC(=O)[C@H](C)NC(=O)[C@H](CCC(=O)O)NC(=O)[C@H](CC(=O)O)NC3=O)NC1=O)CCCN2C(C)=O` (stereo partly drawn) [I-644, Ac-PL3-Asp-Ile-B5-Asp-Glu-Ala-Ala-Phe-Gln-S8-Phe-BztA-Trp-NH2]: in the series “CHI Log D procedure”, the “CHI Log D” value is recorded as 2.837. In addition, the “Solubility” value in “Solubility in PBS” came to 22 µM (≈ 42.7 µg/mL). Besides, the IC50 in series [1] (setting [2]) and in series [1] (read-out: FP EC50) was 808 nM throughout.
